Values quoted from earlier work as cited in patent publication US20130316017A1, “Oral Composition for the Treatment of Acne” (priority 2012, published 2013).

Experiments:
sebum = settings: in vivo
[1] = short-term (0-3 hours)

short-term availability of curcumin and any other compound in the composition [1]	Compound	reduction of sebum (sebum)
–	CC(C)(CO)[C@@H](O)C(=O)NCCC(=O)O [vitamin B5]	reduce sebum
improve	O=C(/C=C/C=C/c1ccc2c(c1)OCO2)N1CCCCC1 [Piperine]	–
